# In EP0007716A1, “R-N-(2-phenyl-2-hydroxyethyl)-3-phenylpropyl amines, their formulations, use and preparation” (ELI LILLY AND COMPANY, priority 1978, dated 1980):
# Test system: dogs with induced myocardial infarction
# Test: Inotropic potency on intravenous administration to dogs with induced myocardial infarction
# Assay type: in vivo
# Conditions: for ED50: Canis lupus familiaris, dose required to effect a fifty percent increase in contractility, four dogs with induced myocardial infarction, read-out: Contractile potency (mcg./kg.)ED50; for Blood pressure change (mm/Hg)ED50: change in blood pressure attributable to the drug at the ED50 dose; for Blood pressure change (mm/Hg)ED50 / Heart rate increase (beats/min.)ED50: dogs with induced myocardial infarction; for Heart rate increase (beats/min.)ED50: increase in heart rate observed at the ED50 dose
# Experimental: The compounds provided by this invention have been evaluated for their inotropic potency in anesthetized dogs and in conscious dogs with implanted cardiovascular transducers. The heart rate, cardiac output, systolic pressure and the derivative of the left ventricular pressure, which is the index of cardiac contractility, were measured.
# Column 1 lists the compounds evaluated according to the test. Each of the compounds evaluated was administered intravenously to four dogs with induced myocardial infarction. Column 2 records the contractile potency of each compound as the dose in mcg./kg. of body weight required to effect a fifty percent increase in contractility (ED50). Column 3 presents the increase in heart rate observed at the EDSO dose. Column 4 records the change in blood pressure attributable to the administered drug.
Structure (SMILES),ED50 [µg/kg],Blood pressure change (mm/Hg)ED50,Heart rate increase (beats/min.)ED50 [beats/min.]
Oc1cccc(CCCNC[C@H](O)c2cccc(O)c2)c1 [R-N-[2-(3-Hydroxyphenyl)-2-hydroxyethyl]-3-(3-hydroxyphenyl)propylamine],1,+7 mm/Hg,14
Oc1ccc([C@@H](O)CNCCCc2cccc(O)c2)cc1 [R-N-[2-(4-hydroxyphenyl)-2-hydroxyethyl]-3-(3-hydroxyphenyl)propylamine],1,-4 mm/Hg,16
Oc1ccc(CCCNC[C@H](O)c2cccc(O)c2)cc1 [R-N-[2-(3-hydroxyphenyl)-2-hydroxyethyl]-3-(4-hydroxyphenyl)propylamine],5,+1 mm/Hg,12
Oc1ccc(CCCNC[C@H](O)c2ccc(O)cc2)cc1 [R-N-[2-(4-hydroxyphenyl)-2-hydroxyethyl]-3-(4-hydroxy-phenyl)propylamine],4,+4 mm/Hg,10
